Results: patent US20170121268A1, “PPAR MODULATORS” (THE GOVERNING COUNCIL OF THE UNIVERSITY OF TORONTO, priority 2014, published 2017)

Columns and labels:
[1] = target: T1, GAL4-hPPARγ (Homo sapiens, UniProt P37231); experiment: GAL4-hPPARγ-UAS-luciferase reporter assay in transiently transfected HEK293 cells; assay type: cell-based; conditions: for PPARγ agonist profile compared to rosiglitazone control / EC50: dose-response, HEK293 cells; for EC50: read-out: EC50 for PPARγ; for PPARγ reporter response relative to vehicle: dosed at 50 μM
T1 sequence (P37231 238-505 limits assumed): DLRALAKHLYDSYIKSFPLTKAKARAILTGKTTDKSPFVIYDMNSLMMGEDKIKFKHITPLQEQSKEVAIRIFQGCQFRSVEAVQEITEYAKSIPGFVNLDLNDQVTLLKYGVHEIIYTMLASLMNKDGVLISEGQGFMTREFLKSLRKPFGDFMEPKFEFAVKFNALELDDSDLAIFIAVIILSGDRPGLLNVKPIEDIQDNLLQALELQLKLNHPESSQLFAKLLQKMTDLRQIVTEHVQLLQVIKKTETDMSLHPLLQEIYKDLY
Description: (§1) HEK293 cells were maintained in Dulbecco's modified Eagle's medium supplemented with 10% fetal bovine serum. Cell transfection was performed in media containing 10% charcoal-stripped fetal bovine serum using calcium phosphate in 96-well plates. The total amount of plasmid DNA (150 ng/well) included 50 ng UAS-Iuc reporter, 20 ng β-galactosidase, 15 ng nuclear receptor (GAL4-hPPARα and GAL4-hPPARγ) and pGEM filler plasmid. Ligands were added at 6 to 8 hours post transfection. Cells harvested 14 to 16 hours later were assayed for luciferase and β-galactosidase activity.

[2] = tested on: 3T3-L1 cells; experiment: Oil Red O staining of 3T3-L1 adipocytes after 11 days of differentiation; assay type: cell-based; conditions: 25 μM
Description: (§2) 3T3-L1 cells were maintained in Dulbecco's modified Eagle's medium supplemented with 10% fetal calf serum. Adipocyte differentiation was induced in two-days postconfluent cells by treating the cells with 100 μg/ml isobutylmethylxanthine, 1 μM dexamethasone, and 5 μg/ml insulin with 10% FBS in DMEM (Day 0). Rosiglitazone and LDT ligands were added at the start of differentiation. Two days later, cells were switched to the medium containing 5 μg/ml insulin with 10% FBS. After an additional 72 hrs, cells were switched to maintenance media containing 10% FBS in DMEM. Thereafter, the media was changed every 2 days. Cells were harvested on day 11 for RNA expression and Oil Red O was used to estimate lipid accumulation.
Following 11 days of differentiation, cells were washed with PBS twice and fixed in 10% neutral buffered formalin (Sigma) for 1 h at room temperature, followed by two ddH2O and two washes with 60% isopropanol. Cells were then stained with 0.6% (w/v) Oil Red O solution (60% isopropanol, 40% water) for 10 min at room temperature, followed by five washes with ddH2O to remove unbound dye and images were taken with Leica M205 FA microscope.

[3] = target: T2, GAL4-hPPARα (Homo sapiens, UniProt Q07869); experiment: GAL4-hPPARα-UAS-luciferase reporter assay in transiently transfected HEK293 cells; assay type: cell-based; conditions: for EC50 / PPARα agonist profile compared to the full agonist GW7647: dose-response, HEK293 cells; for EC50: read-out: EC50 for PPARα; for PPARα reporter response relative to vehicle: dosed at 50 μM
T2 sequence (Q07869 200-468 limits assumed): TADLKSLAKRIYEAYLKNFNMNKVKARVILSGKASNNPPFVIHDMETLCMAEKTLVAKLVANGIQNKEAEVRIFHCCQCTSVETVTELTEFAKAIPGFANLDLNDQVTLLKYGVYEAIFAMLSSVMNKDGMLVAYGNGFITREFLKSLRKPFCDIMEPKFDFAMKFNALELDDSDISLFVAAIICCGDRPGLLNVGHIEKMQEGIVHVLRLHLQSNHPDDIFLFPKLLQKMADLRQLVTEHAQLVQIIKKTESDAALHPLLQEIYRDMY
Description: as §1

[4] = tested on: PPARγ target genes in 3T3-L1 pre-adipocytes; experiment: 3T3-L1 differentiation assay, expression of PPARγ target genes (QPCR); assay type: cell-based; conditions: 25 μM, day 11
Description: as §2
(§3) Total RNA was extracted from cells using RNA STAT-60 (Tel-Test Inc.), followed by DNase I treatment (RNase-free; Roche), and reverse transcribed into cDNA with random hexamers using the High Capacity Reverse Transcription System (ABI; Applied Biosystems). Real-time quantitative PCR (QPCR) analysis was performed on an ABI 7900 in 384-well plates using 2×SYBR Green PCR Master Mix (ABI). Relative mRNA levels were calculated using the comparative Ct method normalized to cyclophilin mRNA.

[5] = women on drug; cited from earlier work
[6] = tested on: PPARα target genes in primary mouse hepatocytes; experiment: Primary hepatocyte assay, expression of PPARα target genes (QPCR); assay type: cell-based; conditions: 50 μM, 24 hrs
Description: Mouse primary hepatocytes were isolated by collagenase perfusion as previously described (Patel et al. 2011). Cells were plated onto type I collagen-coated plates at 0.5×10^6 cells per well for 2 hours in attachment media (William's E Media, 10% charcoal stripped FBS, 1× penicillin/streptomycin, and 10 nM insulin), and then switched to overnight media (M199 Media, 5% charcoal stripped FBS, 1× penicillin/streptomycin, and 1 nM insulin). Ligand treatments were carried out on the following day in M199 media without FBS. Cells were harvested 24 hrs later for RNA extraction.
as §3

Compound	PPARγ agonist profile compared to rosiglitazone control [1]	EC50 [1]	EC50 [3]	PPARα agonist profile compared to the full agonist GW7647 [3]	adipocyte differentiation by Oil red O staining [2]	GLUT4 expression [4]	other results
CCCCCCCCCCCCCCCc1cccc(O)c1C(=O)O [LDT11]	full agonist profile	12 µM	9 µM	–	less adipogenic compared to Rosi	augmented	adiponectin expression [4]: significantly increased
CCc1ccc(CCOc2ccc(CC3SC(=O)NC3=O)cc2)nc1 (centres unmarked) [pioglitazone]	–	–	–	–	–	–	rate of distal bone fractures [5]: two-fold increased rate
CCCCCCCCCCCCCCCc1cccc(OCC(=O)O)c1 [LDT16]	full agonist profile	3.6 µM	0.9 µM	–	–	–	–
CCCCCCCCCCCCCCCc1cccc(OC)c1C(=O)O [LDT30]	–	–	32 µM	–	–	–	UCP2 expression [4]: upregulated
CCOC(=O)C(C)(C)Oc1cccc(CCCCCCCC(=O)O)c1 [LDT478, 8-(3-((1-ethoxy-2-methyl-1-oxopropan-2-yl)oxy)phenil)octanoic acid]	full agonist profile	14 µM	37 µM	less potent partial PPARα agonists	–	–	–
CCCCCCCCCCCCCCCc1cccc(OC(C)(C)C(=O)OCC)c1 [LDT408]	partial PPARγ agonists	–	–	–	less adipogenic compared to Rosi	augmented	CD36 expression (hepatocytes) [6]: significantly increased; FABP1 expression [6]: significantly increased; PDK4 expression [6]: upregulated; UCP2 expression [4]: upregulated; adiponectin expression [4]: significantly increased
CCCCCCCCCCCCCCCc1cccc(OCC(=O)OCC)c1 [LDT15]	partial PPARγ agonists	42 µM	3.5 µM	–	less adipogenic compared to Rosi	augmented	CD36 expression (hepatocytes) [6]: significantly increased; FABP1 expression [6]: significantly increased; Fgf21 expression [6]: upregulation; PDK4 expression [6]: upregulated; UCP2 expression [4]: upregulated; adiponectin expression [4]: induced to a similar degree as Rosi
CCOC(=O)COc1cccc(CCCCCCCC(=O)O)c1 [LDT298, 8-(3-(2-Ethoxy-2-oxoethoxy)phenyl)octanoic acid]	–	–	1.3 µM	less potent partial PPARα agonists	–	–	increase in reporter activity in the PPARγ activation assay ([1]; FIG. 5B, dose not given): comparable luciferase activation; increase in activity as compared to Veh in the PPARα activation assay ([3]; FIG. 5A, dose not given): comparable luciferase activation
CCCCCCCCCCCCCCCc1cccc(OC(C)=O)c1C(=O)O [LDT13]	partial PPARγ agonists	12 µM	7 µM	–	–	augmented	–
CN(CCOc1ccc(CC2SC(=O)NC2=O)cc1)c1ccccn1 (centres unmarked) [rosiglitazone]	–	–	–	–	–	–	rate of distal bone fractures [5]: two-fold increased rate
CCOC(=O)CCCCCCCc1cccc(OC(C)(C)C(=O)OCC)c1 [LDT481, Ethyl 8-(3-((1-ethoxy-2-methyl-1-oxopropan-2-yl)oxy)phenyl)octanoate]	–	–	–	–	able to induce adipocyte differentiation	upregulated	melting point: 39 to 42 °C

The next lines start with results.

PPARγ agonist profile compared to rosiglitazone control [1]	EC50 [1]	EC50 [3]	PPARα agonist profile compared to the full agonist GW7647 [3]	Compound	adipocyte differentiation by Oil red O staining [2]	GLUT4 expression [4]	other results
full agonist profile	14 µM	20 µM	less potent partial PPARα agonists	CC(C)(Oc1cccc(CCCCCCCCO)c1)C(=O)O [LDT477, 2-(3-(8-hydroxyoctyl)phenoxy)-2-methylpropanoic acid]	able to induce adipocyte differentiation	upregulated	PPARγ reporter response relative to vehicle [1]: most active; PPARα reporter response relative to vehicle [3]: most active
full agonist profile	21 µM	3.9 µM	less potent partial PPARα agonists	CCOC(=O)CCCCCCCc1cccc(OCC(=O)OCC)c1 [LDT480, Ethyl 8-(3-(2-ethoxy-2-oxoethoxy)phenyl)octanoate]	–	–	PPARγ reporter response relative to vehicle [1]: most active; PPARα reporter response relative to vehicle [3]: most active
–	–	0.2 µM	–	CCCCCCCCCCCCCCCc1cccc(OC(C)(C)C(=O)O)c1 [LDT409]	comparable to Rosi	augmented	UCP2 expression [4]: upregulated; adiponectin expression [4]: induced to a similar degree as Rosi
less potent, full agonist profile	–	–	less potent partial PPARα agonists	CCOC(=O)COc1cccc(CCCCCCCCO)c1 [LDT296, Ethyl 2-(3-(8-hydroxyoctyl)phenoxy)acetate]	–	–	–
